For 18 compounds, IC50 results are on record in patent US20260356835A1, “BICYCLIC HETEROARYL COMPOUNDS” (QuantX Biosciences US, Inc., priority 2023, published 2026).

Broadly, the pIC50 is −log10 of the IC50, conventionally taken in molar units. A high value points to a low IC50.

Assay [1] has as its target T1, N-his8-TEV-hPARG (389-976) (Homo sapiens, UniProt Q86W56).
T1 construct: N-his8-TEV-hPARG (389-976); His8 (N); TEV protease cleavage site (N); made in house; host or cells: E. coli BL21(DE3)
Put plainly: PARG Biochemical Enzymatic Assay (PARG inhibition HTRF assay). The conditions noted are these: 62.5 pM PARG, 5 nM Biotin-Parylated PARP1 substrate, 60 minutes preincubation, 10 minutes reaction at 23 °C. On the procedure: PARG Biochemical Enzymatic Assay
TEV-His8-PolyADP-Ribose Polymerase 1 (379-1014) (PARP1) and N-his8-TEV-hPARG (389-976) were used to transform BL21(DE3) competent cells followed by growth for 1 hour at 37 °C and plating on Kanamycin resistant agar plates. A single colony was then inoculated into 1 ml of Luria Broth and expansion into a 1 liter scale for growth at 37 °C for 3 hours. Expression was induced via 0.2 mM IPTG induction for 20 hours at 16 °C in BL21(DE3) E. coli. Purification was then performed using a Nickel column, size exclusion chromatography and HPLC analysis.
For substrate preparation, […] nicked DNA and 2 μM PARP1 protein were mixed for 10 minutes at 25 °C 10 μM biotin-NAD+ and 100 μM NAD+ were then added and incubated for 60 minutes at 30 °C to yield PARylated PARP1 substrate.
For compound screening, compounds were serially diluted to a 3× final concentration in assay buffer (Tris pH7.5 50 mM, KCl 50 mM, Tween-20 0.01%, BSA 0.1 mg/ml, EDTA 3 mM, EGTA 0.4 mM, DTT 1 mM) containing 1% DMSO. A top concentration of 1.5 μM for a 10-point dose response curve using a 1:3 dilution curve was used. 2.5×PARG (156.25 pM working concentration, 62.5 pM final concentration) was prepared in assay buffer and 4 ul added to a 384 well assay plate containing 2 μl of serially diluted compound. The plate was then centrifuged for 10 seconds and incubated for 60 minutes at 23 °C. 4 μl of 2.5× Biotin-Parylated PARP1 (12.5 nM working concentration, 5 nM final concentration) was then added to the plate and incubated for 10 minutes at 23 °C. 4 μl of […] Detection reagent containing 0.44 μg/ml of Streptavidin-Europium cryptate and 4 μg/ml of anti-6His-XL665 monoclonal antibody was added to the plate and incubated for 60 minutes at 23 °C. The Homogeneous Time Resolved Fluorescent (HTRF) signal was then measured on an Envision plate reader using and excitation wavelength of 337 nm and emission wavelengths of 615 nm and 665 nm. Normalized percent inhibition was then calculated using the following equation: % Inhibition normalized=(compound signal-min signal)/(max signal-min signal)*100%, where Maximum signal was substrate only wells and Minimum signal was enzyme and substrate well. IC50 was calculated by fitting % Inhibition values and log of compound concentrations to nonlinear regression (log(inhibitor) vs. response—Variable slope(four parameters)) with GraphPad 9.4.1
For biochemical activity, bracket is denoted as: A<100 nM; 100 nM<B<500 nM; C>500 nM
On the technique in general: TR-FRET usually uses a lanthanide donor and a delayed reading to cut background.

Another assay deals with Kuramochi cells. Put plainly: Cellular Viability Assay (5 day Kuramochi cell viability, CellTiter-Glo). It counts as cell-based. The conditions noted are these: 5 days, 37 °C, growth inhibition relative to Day 0 (T0) and DMSO. The procedure: Kuramochi cells were seeded at a density of 1000 cells per well in a 384-well, white, sterile, clear bottom plate, using a Multidrop liquid dispenser and incubated for 24 hours at 37 °C in a 5% CO2 humidified environment. 24 hours later, compounds were added starting at a top dose of 10 μM for a 9-point dose response curve at a 1:3 dilution using an iDOT HT liquid handler and incubated for 5 days at 37 °C in a 5% CO2 humidified environment. After 5 days and at Day 0, plates were incubated at room temperature for 30 minutes followed by the addition of 30 μl of CellTiter-Glo Reagent. Plates were then mixed for 10 minutes on an orbital shaker followed by incubation at room temperature for 20 minutes. Luminescence was then read using the Envision plate reader. Percent Growth Inhibition was then calculated using the following equation: Percent Growth Inhibition normalized=100−(compound signal−T0)/(max signal−T0)*100%, where Max Signal refers to the DMSO only treated cells and T0 refers to the Day0 viability measurement. Growth Inhibition 50 was then calculated using the following equation: Y=Bottom+(Top−Bottom)/(1+10^((Log IC50−X)*hillslope)).
For cell activity, bracket is denoted as: A<1 uM; 1 uM<B<5 uM; C>5 uM.
(In general: Cellular ATP, detected with luciferase, serves as a proxy for viable cell number.)

pIC50: −log10 of the molar value. Some results are limits rather than exact numbers.

T1 sequence (Q86W56 389-976): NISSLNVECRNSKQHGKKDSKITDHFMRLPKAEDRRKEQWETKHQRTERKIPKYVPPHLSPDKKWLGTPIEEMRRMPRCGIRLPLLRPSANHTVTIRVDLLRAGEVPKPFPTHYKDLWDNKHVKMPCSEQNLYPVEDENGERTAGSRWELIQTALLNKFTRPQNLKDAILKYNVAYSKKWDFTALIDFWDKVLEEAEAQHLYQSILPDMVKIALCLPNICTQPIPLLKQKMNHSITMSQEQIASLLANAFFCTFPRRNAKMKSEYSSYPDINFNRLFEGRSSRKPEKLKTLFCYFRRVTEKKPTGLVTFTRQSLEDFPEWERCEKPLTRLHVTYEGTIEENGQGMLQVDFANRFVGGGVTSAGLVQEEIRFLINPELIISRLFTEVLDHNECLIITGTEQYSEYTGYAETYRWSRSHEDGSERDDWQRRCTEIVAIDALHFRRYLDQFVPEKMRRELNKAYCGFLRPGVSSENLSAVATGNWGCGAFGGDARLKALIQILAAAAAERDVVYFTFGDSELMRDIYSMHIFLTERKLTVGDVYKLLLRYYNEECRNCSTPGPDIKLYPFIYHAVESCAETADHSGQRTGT

With `CC1(NS(=O)(=O)c2cc(N3CCC4(CC3)COC4)n3ncc(-c4nnc(C(F)F)s4)c3c2)CC1` [Example 1, 3-(5-(difluoromethyl)-1,3,4-thiadiazol-2-yl)-N-(1-methylcyclopropyl)-7-(2-oxa-7-azaspiro[3.5]nonan-7-yl)pyrazolo[1,5-a]pyridine-5-sulfonamide], the pIC50 in assay [1] was greater than 7.00; with Kuramochi cells it was greater than 6.00.
For `N#CC1(NS(=O)(=O)c2cc(N3CCC4(CC3)COC4)n3ncc(-c4nnc(C(F)F)s4)c3c2)CC1` [Example 2, N-(1-cyanocyclopropyl)-3-(5-(difluoromethyl)-1,3,4-thiadiazol-2-yl)-7-(2-oxa-7-azaspiro[3.5]nonan-7-yl)pyrazolo[1,5-a]pyridine-5-sulfonamide], the pIC50 in assay [1] was greater than 7.00; with Kuramochi cells, greater than 6.00.
`N#CC1(NS(=O)(=O)c2cc(N3CCN(C(=O)C4CC4)CC3)n3ncc(-c4nnc(C(F)F)s4)c3c2)CC1` [Example 3, N-(1-cyanocyclopropyl)-7-[4-(cyclopropanecarbonyl)piperazin-1-yl]-3-[5-(difluoromethyl)-1,3,4-thiadiazol-2-yl]pyrazolo[1,5-a]pyridine-5-sulfonamide]: the pIC50 is greater than 7.00 in assay [1] and greater than 6.00 in the assay with Kuramochi cells.
As for `C#CC1(NS(=O)(=O)c2cc(N3CCC4(CC3)COC4)n3ncc(-c4nnc(C(F)F)s4)c3c2)CC1` [Example 4, 3-(5-(difluoromethyl)-1,3,4-thiadiazol-2-yl)-N-(1-ethynylcyclopropyl)-7-(2-oxa-7-azaspiro[3.5]nonan-7-yl)pyrazolo[1,5-a]pyridine-5-sulfonamide], the pIC50 in assay [1] is greater than 7.00; with Kuramochi cells it was greater than 6.00.
The like results for `CC1(NS(=O)(=O)c2cc(N3CCC4(CC3)COC4)n3ncc(-c4nncs4)c3c2)CC1` [Example 5] were, in that order, greater than 7.00 and greater than 6.00.
Regarding `N#CC1(NS(=O)(=O)c2cc(C3=CCN(C(=O)C4CC4)CC3)n3ncc(-c4nnc(C(F)F)s4)c3c2)CC1` [Example 6, N-(1-cyanocyclopropyl)-7-(1-(cyclopropanecarbonyl)-1,2,3,6-tetrahydropyridin-4-yl)-3-(5-(difluoromethyl)-1,3,4-thiadiazol-2-yl)pyrazolo[1,5-a]pyridine-5-sulfonamide], the values for the pIC50 (in assay [1]; with Kuramochi cells) were greater than 7.00 and greater than 6.00, respectively.
For the compound `Cc1nnc(-c2cnn3c(N4CCC5(CC4)COC5)cc(S(=O)(=O)NC4(C)CC4)cc23)s1` [Example 7, 3-(5-methyl-1,3,4-thiadiazol-2-yl)-N-(1-methylcyclopropyl)-7-(2-oxa-7-azaspiro[3.5]nonan-7-yl)pyrazolo[1,5-a]pyridine-5-sulfonamide], the pIC50 was greater than 7.00 in assay [1] and greater than 6.00 with Kuramochi cells.
Regarding `CC1(NS(=O)(=O)c2cc(N3CCC4(CC3)COC4)n3ncc(-c4nnc(C5(C#N)CC5)s4)c3c2)CC1` [Example 8, 3-(5-(1-cyanocyclopropyl)-1,3,4-thiadiazol-2-yl)-N-(1-methylcyclopropyl)-7-(2-oxa-7-azaspiro[3.5]nonan-7-yl)pyrazolo[1,5-a]pyridine-5-sulfonamide], the values for the pIC50 (in assay [1]; in the assay with Kuramochi cells) were greater than 7.00 and greater than 6.00, respectively.
As to `Cc1nnc(-c2cnn3c(N4CCC5(CC4)COC5)cc(S(=O)(=O)NC4(C)CC4)cc23)o1` [Example 9, 3-(5-methyl-1,3,4-oxadiazol-2-yl)-N-(1-methylcyclopropyl)-7-(2-oxa-7-azaspiro[3.5]nonan-7-yl)pyrazolo[1,5-a]pyridine-5-sulfonamide], the pIC50 in assay [1] is 6.30 to 7.00; in the assay on Kuramochi cells, greater than 6.00.
The like results for `O=S(=O)(NC1(C(F)F)CC1)c1cc(N2CCC3(CC2)COC3)n2ncc(-c3nnc(C(F)F)s3)c2c1` [Example 10, 3-(5-(difluoromethyl)-1,3,4-thiadiazol-2-yl)-N-(1-(difluoromethyl)cyclopropyl)-7-(2-oxa-7-azaspiro[3.5]nonan-7-yl)pyrazolo[1,5-a]pyridine-5-sulfonamide] were, in that order, greater than 7.00 and greater than 6.00.
Regarding `N#CC1(NS(=O)(=O)c2cc(C3CCN(C(=O)C4CC4)CC3)n3ncc(-c4nnc(C(F)F)s4)c3c2)CC1` [Example 11, N-(1-cyanocyclopropyl)-7-[1-(cyclopropanecarbonyl)-4-piperidyl]-3-[5-(difluoromethyl)-1,3,4-thiadiazol-2-yl]pyrazolo[1,5-a]pyridine-5-sulfonamide], the negative logarithm of the IC50 (pIC50) was greater than 7.00 in assay [1] and greater than 6.00 in the assay on Kuramochi cells.
`CC1(NS(=O)(=O)c2cc(N3CCC4(CC3)COC4)n3ncc(-c4nnc(C5(F)CC5)s4)c3c2)CC1` [Example 12, 3-(5-(1-fluorocyclopropyl)-1,3,4-thiadiazol-2-yl)-N-(1-methylcyclopropyl)-7-(2-oxa-7-azaspiro[3.5]nonan-7-yl)pyrazolo[1,5-a]pyridine-5-sulfonamide]: the figures for the pIC50 (in assay [1]; in the assay on Kuramochi cells) were greater than 7.00 and greater than 6.00, respectively.
In the case of `CC1(NS(=O)(=O)c2cc(N3CCC4(CC3)COC4)n3ncc(-c4nc(C(F)F)ns4)c3c2)CC1` [Example 25, 3-(3-(difluoromethyl)-1,2,4-thiadiazol-5-yl)-N-(1-methylcyclopropyl)-7-(2-oxa-7-azaspiro[3.5]nonan-7-yl)pyrazolo[1,5-a]pyridine-5-sulfonamide], the pIC50 in assay [1] was greater than 7.00.
In assay [1], `O=C(N1CCN(c2cc(S(=O)(=O)NC34CC(C3)C4)cc3c2cnn3-c2nnc(C(F)F)s2)CC1)N1CC[C@H](O)C1` [Example 27, N-(1-bicyclo [1.1.1]pentanyl)-1-[5-(difluoromethyl)-1,3,4-thiadiazol-2-yl]-4-[4-[(3S)-3-hydroxypyrrolidine-1-carbonyl]piperazin-1-yl] indazole-6-sulfonamide] gave a pIC50 of less than 6.30.
Compound `CC(=O)N1CCN(c2cc(S(=O)(=O)NC3(C)CC3)cc3c2cnn3-c2nnc(C3(O)CCC3)s2)CC1` [Example 29, 4-(4-acetylpiperazin-1-yl)-1-[5-(1-hydroxycyclobutyl)-1,3,4-thiadiazol-2-yl]-N-(1-methylcyclopropyl)indazole-6-sulfonamide] had a pIC50 in assay [1] of 6.30 to 7.00.
`CC(=O)N1CCN(c2cc(S(=O)(=O)NC3(C)CC3)cc3c2cnn3-c2nc3c(s2)C(C)(O)COC3)CC1` (stereo not drawn) [Example 30, 4-(4-acetylpiperazin-1-yl)-1-(7-hydroxy-7-methyl-6,7-dihydro-4H-pyrano[3,4-d]thiazol-2-yl)-N-(1-methylcyclopropyl)-1H-indazole-6-sulfonamide] gave a pIC50 in assay [1] of less than 6.30.
As for `CC(=O)N1CCN(c2cc(S(=O)(=O)NC3(C)CC3)cn3c(-c4nnc(C5(C#N)CC5)s4)cnc23)CC1` [Example 38, 8-(4-acetylpiperazin-1-yl)-3-(5-(1-cyanocyclopropyl)-1,3,4-thiadiazol-2-yl)-N-(1-methylcyclopropyl)imidazo[1,2-a]pyridine-6-sulfonamide], the pIC50 in assay [1] was greater than 7.00.
In turn, `N#CC1(NS(=O)(=O)c2cc3c(-c4nnc(C(F)F)s4)ncn3c(N3CCC4(CC3)COC4)c2F)CC1` [Example 41, N-(1-cyanocyclopropyl)-1-(5-(difluoromethyl)-1,3,4-thiadiazol-2-yl)-6-fluoro-5-(2-oxa-7-azaspiro[3.5]nonan-7-yl)imidazo[1,5-a]pyridine-7-sulfonamide] showed a pIC50 in assay [1] greater than 7.00.
